# Literature values as cited in patent publication US20250339420A1, “ANILINE-DERIVATIVE-CONTAINING EXTERNAL PREPARATION FOR SKIN” (KINOPHARMA, INC., priority 2022, published 2025).
# Key:
# [1] = tested on: E6 and E7 genes of human papillomavirus (HPV)
smiles,measurement,setting,value
"Fc1ccc(N2CCCCC2)c(NC(=S)c2ccncc2)c1 [Compound I-a, N-[5-fluoro-2-(1-piperidinyl)phenyl]-4-pyridinethioamide]",effect on p53 gene,p53 gene,stabilizes p53 gene
same,expression of E6 and E7 genes of human papillomavirus (HPV),[1],suppresses expression
same,antiviral activity against papillomavirus,papillomavirus,exhibits antiviral activity
